Measurements: US11052092B2, “N-{[2-(piperidin-1-yl)phenyl](phenyl)methyl}-2-(3-oxo-3,4-dihydro-2H-1,4-benzoxazin-7-yl)acetamide derivatives and related compounds as ROR-gamma modulators for treating autoimmune diseases” (Genfit, priority 2017, dated 2021)

Legend:
[1] = system: Murine EL-4 lymphoma cell line overexpressing human RORγt; experiment: IL-17 secretion from EL4 murine lymphoma; format: cell-based; conditions: Mus musculus; human RORγt-transfected EL4 cells, PMA (10 ng/mL) and ionomycin (1 μM), 24 h; read-out: IC50, IL-17 secretion inhibition
Summary of the method: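 EL-4 cells electroporated with hRORγt plasmid, seeded at 150000 cells/well and pretreated with compound for 24 h, then stimulated with PMA (10 ng/mL) plus ionomycin (1 μM final) with compound for a further 24 h at 37 °C. IL-17 in supernatant measured by HTRF or ELISA.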

[2] = biological target: T1, RORγt ligand-binding domain (RORγt-LBD) (Homo sapiens, UniProt P51449); experiment: Time-resolved FRET (TR-FRET) RORγt coactivator assay; conditions: GST-RORγ-LBD, biotinylated RIP140 peptide, 2 hours at room temperature
T1 construct: 20 nM recombinantly expressed RORγ-LBD fused to GST
T1 sequence (P51449 269-508 limits assumed): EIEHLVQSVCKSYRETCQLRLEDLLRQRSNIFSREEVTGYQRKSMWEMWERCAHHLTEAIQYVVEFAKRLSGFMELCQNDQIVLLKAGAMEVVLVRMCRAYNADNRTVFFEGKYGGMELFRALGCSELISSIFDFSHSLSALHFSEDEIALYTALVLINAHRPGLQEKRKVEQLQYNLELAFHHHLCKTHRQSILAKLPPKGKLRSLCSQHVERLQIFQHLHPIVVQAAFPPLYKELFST
Source text: Time-resolved FRET (TR-FRET) RORγt coactivator assay was used to identify RORγ modulator compounds with ligand-dependent coactivator displacement. The assay uses a d2-labeled anti-GST antibody, synthetic N-terminally biotinylated peptide which is derived from nuclear receptor coactivator protein RIP140, and a RORγt ligand-binding domain (RORγt-LBD) that is tagged with glutathione-S-transferase (GST). The influence of compounds on the RORγ-peptide interaction relies on the binding dependent energy transfer from a donor to an acceptor fluorophor attached to the binding partner of interest. […] For reduction of background from compound fluorescence, TR-FRET method makes use of generic fluorophore labels and time resolved detection.
The assays were done in a final volume of 20 μl in a 384 well plate in a CHAPS buffer (2 mM CHAPS; 1 mM DTT, 2 mM EDTA; 0.1% BSA), containing 20 nM recombinantly expressed RORγ-LBD fused to GST, 30 nM N-terminally biotinylated peptide, 1 nM streptavidin-terbium conjugate and 20 nM d2 labeled-anti-GST. Test compounds were diluted using 10 mM stock solution. The range of the final compound concentrations used in this test was from 0.3 nM to 30 μM (logarithmic scale). DMSO content of the samples was kept at 1%. The assay was equilibrated for 2 hours in the dark at room temperature in 384 well plates (Falcon). The signal was detected by an Ultra384 reader (TECAN). […] Compounds that promote coactivator displacement induce a concentration-dependent decrease in time-resolved fluorescent signal. Data were collected and analyzed using GraphPad Prism software (GraphPad Software V5.02, San Diego Calif. USA). IC50 in μM and Emax in % were reported for each compound.

[3] = biological target: T2, human RORγt (Homo sapiens, UniProt P51449); experiment: RORE Luciferase/RORγt transactivation assay; format: cell-based; conditions: COS-7 cells transfected with human IL-17 promoter luciferase reporter and RORγt plasmid; 20 h with compound; read-out: IC50, RORγt activity inhibition
T2 construct: the full-length cDNA of human RORγt; expressed in transfected cells; host or cells: COS-7 (monkey kidney)
T2 sequence (P51449 1-497 isoform P51449-2): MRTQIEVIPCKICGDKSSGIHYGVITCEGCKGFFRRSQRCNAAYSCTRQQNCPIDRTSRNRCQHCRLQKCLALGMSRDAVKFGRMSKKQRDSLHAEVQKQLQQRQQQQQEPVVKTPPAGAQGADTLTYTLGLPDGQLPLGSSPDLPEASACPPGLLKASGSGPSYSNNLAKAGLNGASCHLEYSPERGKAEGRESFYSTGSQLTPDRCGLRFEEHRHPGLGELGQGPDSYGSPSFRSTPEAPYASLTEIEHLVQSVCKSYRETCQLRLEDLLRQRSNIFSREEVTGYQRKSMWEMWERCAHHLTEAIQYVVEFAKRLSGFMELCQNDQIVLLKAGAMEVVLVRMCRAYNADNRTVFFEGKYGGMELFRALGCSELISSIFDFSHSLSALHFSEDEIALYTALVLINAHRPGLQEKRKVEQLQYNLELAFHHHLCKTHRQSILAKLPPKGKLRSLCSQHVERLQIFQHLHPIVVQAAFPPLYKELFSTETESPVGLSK
Summary of the method: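 Transactivation read-out: luminescence (Steady-Glo, 30 min at room temperature) from COS-7 cells carrying a RORγt expression plasmid plus a 4.3 kb IL-17 promoter luciferase reporter. Compound exposure was in serum-free DMEM with 0.3% DMSO final. Reported values are IC50 (μM) and Emax (%).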

IC50 [1] [nM]	IC50 [2] [nM]	IC50 [3] [nM]	Compound
> 10000	10 to 100	1000 to 10000	Cc1ccc(C(NC(=O)Cc2ccc3c(c2)OCC(=O)N3)c2ccccc2)c(N2CCOCC2)c1 (stereo not drawn) [Cpd. 2, N-{[4-methyl-2-(morpholin-4-yl)phenyl](phenyl)methyl}-2-(3-oxo-3,4-dihydro-2H-1,4-benzoxazin-7-yl)acetamide]
1000 to 10000	100 to 1000	1000 to 10000	O=C1COc2cc(CC(=O)NC(c3ccccc3)c3ccccc3N3CCCCC3)ccc2N1 (stereo not drawn) [Cpd. 3, 2-(3-oxo-3,4-dihydro-2H-1,4-benzoxazin-7-yl)-N-{phenyl[2-(piperidin-1-yl)phenyl]methyl}acetamide]
1000 to 10000	100 to 1000	100 to 1000	Cc1ccc(C(NC(=O)Cc2ccc3c(c2)OC(C)(C)C(=O)N3)c2ccc(C)o2)c(N2CCCCC2)c1 (stereo not drawn) [Cpd. 25, 2-(2,2-dimethyl-3-oxo-3,4-dihydro-2H-1,4-benzoxazin-7-yl)-N-{[4-methyl-2-(piperidin-1-yl)phenyl](5-methylfuran-2-yl)methyl}acetamide]
< 100	< 10	10 to 100	CC(=O)N1Cc2ccc(C3(C(=O)NC(c4ccc(C)o4)c4ccc(C)cc4C)CC3)cc2C1 (stereo not drawn) [Cpd. 127, 1-(2-acetyl-2,3-dihydro-1H-isoindol-5-yl)-N-[(2,4-dimethylphenyl)(5-methylfuran-2-yl)methyl]cyclopropane-1-carboxamide]
100 to 1000	10 to 100	100 to 1000	COc1ccc(C(NC(=O)Cc2ccc3c(c2)OCC(=O)N3)c2ccccc2)c(N2CCCCC2)c1 (stereo not drawn) [Cpd. 4, N-{[4-methoxy-2-(piperidin-1-yl)phenyl](phenyl)methyl}-2-(3-oxo-3,4-dihydro-2H-1,4-benzoxazin-7-yl)acetamide]
100 to 1000	< 10	10 to 100	Cc1ccc(C(NC(=O)Cc2ccc3c(c2)C(O)C(=O)N3C)c2ccc(C)o2)c(N2CCCCC2)c1 (stereo not drawn) [Cpd. 53, 2-(3-hydroxy-1-methyl-2-oxo-2,3-dihydro-1H-indol-5-yl)-N-{[4-methyl-2-(piperidin-1-yl)phenyl](5-methylfuran-2-yl)methyl}acetamide]
< 100	< 10	< 10	Cc1ccc(C(NC(=O)C2(c3ccc4c(c3)CC(=O)N4)CC2)c2ccc(Cl)o2)c(C)c1 (stereo not drawn) [Cpd. 86, N-[(5-chlorofuran-2-yl)(2,4-dimethylphenyl)methyl]-1-(2-oxo-2,3-dihydro-1H-indol-5-yl)cyclopropane-1-carboxamide]
100 to 1000	100 to 1000	100 to 1000	Cc1ccc(C(NC(=O)Cc2ccc3c(c2)C(=O)C(=O)N3)c2ccc(C)o2)c(N2CCCCC2)c1 (stereo not drawn) [Cpd. 23, 2-(2,3-dioxo-2,3-dihydro-1H-indol-5-yl)-N-{[4-methyl-2-(piperidin-1-yl)phenyl](5-methylfuran-2-yl)methyl}acetamide]
> 10000	10 to 100	1000 to 10000	O=C1COc2cc(CC(=O)NC(c3ccccc3)c3ccccc3N3CCCC3)ccc2N1 (stereo not drawn) [Cpd. 5, 2-(3-oxo-3,4-dihydro-2H-1,4-benzoxazin-7-yl)-N-{phenyl[2-(pyrrolidin-1-yl)phenyl]methyl}acetamide]
< 100	< 10	< 10	Cc1ccc(C(NC(=O)C2(c3ccc4[nH]cc(CCO)c4c3)CC2)c2ccc(C)o2)c(C)c1 (stereo not drawn) [Cpd. 60, N-[(2,4-dimethylphenyl)(5-methylfuran-2-yl)methyl]-1-[3-(2-hydroxyethyl)-1H-indol-5-yl]cyclopropane-1-carboxamide]
< 100	< 10	10 to 100	Cc1ccc(C(NC(=O)C2(c3ccc4c(c3)CC(=O)N4C)CC2)c2ccc(C)o2)c(C)c1 (stereo not drawn) [Cpd. 130, N-[(2,4-dimethylphenyl)(5-methylfuran-2-yl)methyl]-1-(1-methyl-2-oxo-2,3-dihydro-1H-indol-5-yl)cyclopropane-1-carboxamide]
